Measurements: patent US20090143279A1 (priority 2007, published 2009)
Read-outs that look alike come from different tables or passages of the source.

What was measured:
[1] = tested on: mitochondrial membrane potential; format: cell-based, mouse; settings: for ΔΨm (composite Z-score): normalized score vs mock-treated (DMSO) wells
reactive oxygen species = format: cell-based, mouse; settings: for ROS (composite Z-score): normalized score vs mock-treated (DMSO) wells
OXPHOS gene expression = format: cell-based, mouse; settings: for GE-HTS (composite Z-score): normalized score vs mock-treated (DMSO) wells
nuOXPHOS transcripts = format: cell-based, mouse; settings: for nucOX (composite Z-score): normalized score vs mock-treated (DMSO) wells
mtOXPHOS transcripts = format: cell-based, mouse; settings: for mitoOX (composite Z-score): normalized score vs mock-treated (DMSO) wells
cytochrome c = format: cell-based, mouse; settings: for cyt c (composite Z-score): normalized score vs mock-treated (DMSO) wells
C2C12 myotubes = settings: for Viability (composite Z-score): normalized score vs mock-treated (DMSO) wells
[2] = tested on: cellular dehydrogenase activity; settings: for MTT (composite Z-score): normalized score vs mock-treated (DMSO) wells
[3] = composite Z-score vs DMSO, Conc 20 μM
[4] = normalized composite Z-score vs mock-treated (DMSO) wells, Conc 20 μM
[5] = 20 μM, composite Z-score vs DMSO
[6] = composite Z-score vs DMSO wells, Conc 20 μM
[7] = composite Z-score vs mock-treated (DMSO) wells, Conc 20 μM
[8] = 7.92 μM, composite Z-score vs DMSO

Sequence of cytochrome c (P62897 whole entry): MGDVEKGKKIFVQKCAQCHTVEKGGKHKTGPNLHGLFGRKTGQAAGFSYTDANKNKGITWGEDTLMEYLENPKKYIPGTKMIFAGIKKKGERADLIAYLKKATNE

CC(C)c1ccc2c(c1O)CC[C@H]1C3=C(CC[C@]21C)C(=O)OC3 [triptophenolide]
ΔΨm (composite Z-score) ([1]; Conc 20 μM): 1.886 | ROS (composite Z-score) (reactive oxygen species; Conc 20 μM): −1.072 | GE-HTS (composite Z-score) (OXPHOS gene expression; Conc 20 μM): −0.110 | nucOX (composite Z-score) (nuOXPHOS transcripts; Conc 20 μM): 0.038 | mitoOX (composite Z-score) (mtOXPHOS transcripts; Conc 20 μM): −0.350 | cyt c (composite Z-score) (cytochrome c; Conc 20 μM): −0.593 | Viability (composite Z-score) (C2C12 myotubes; Conc 20 μM): −0.599 | MTT (composite Z-score) ([2]; Conc 20 μM): −1.067

C[C@@H]1C[C@H]2CC(=O)[C@H]3CCCN4CCC[C@H]2[C@]34C1 [lycopodine]
ΔΨm [1, 3]: −0.239 | ROS (reactive oxygen species; [3]): 0.500 | GE-HTS (OXPHOS gene expression; [3]): −0.150 | nucOX (nuOXPHOS transcripts; [3]): −0.028 | mitoOX (mtOXPHOS transcripts; [3]): −0.411 | cyt c (cytochrome c; [3]): −0.093 | Viability (C2C12 myotubes; [3]): −0.466 | MTT [2, 3]: −1.139

2-hydroxy-5 (6)epoxy-tetrahydrocaryophyllene
ΔΨm [1, 4]: −0.739 | ROS (reactive oxygen species; [4]): 0.074 | GE-HTS (OXPHOS gene expression; [4]): −0.347 | nucOX (nuOXPHOS transcripts; [4]): −0.447 | mitoOX (mtOXPHOS transcripts; [4]): −0.043 | cyt c (cytochrome c; [4]): 0.236 | Viability (C2C12 myotubes; [4]): −0.772 | MTT [2, 4]: −0.836

C[C@@H]1O[C@@H](O[C@H]2[C@H](Oc3cc(O)c4c(=O)cc(-c5ccc(O)cc5)oc4c3)O[C@H](CO)[C@@H](O)[C@@H]2O)[C@H](O)[C@H](O)[C@H]1O [rhoifolin]
ΔΨm [1, 4]: −0.213 | ROS (reactive oxygen species; [4]): 0.471 | GE-HTS (OXPHOS gene expression; [4]): −0.838 | nucOX (nuOXPHOS transcripts; [4]): −0.774 | mitoOX (mtOXPHOS transcripts; [4]): −0.768 | cyt c (cytochrome c; [4]): 0.515 | Viability (C2C12 myotubes; [4]): 0.089 | MTT [2, 4]: −0.683

COc1c(CC(=O)c2cc3c(cc2O)OC(C)(C)C(O)C3)ccc2c1C=CC(C)(C)O2 (stereo not shown) [dihydromunduletone]
ΔΨm [1, 4]: 2.250 | ROS (reactive oxygen species; [4]): −0.049 | GE-HTS (OXPHOS gene expression; [4]): −1.331 | nucOX (nuOXPHOS transcripts; [4]): −1.276 | mitoOX (mtOXPHOS transcripts; [4]): −1.248 | cyt c (cytochrome c; [4]): −0.146 | Viability (C2C12 myotubes; [4]): 1.580 | MTT [2, 4]: −0.805

CC1=CC(=O)C2=C(C)C[C@H](O)[C@@H]3[C@H](OC(=O)[C@H]3C)[C@H]12 [austricine]
ΔΨm (composite Z-score) ([1]; Conc 20 μM): −0.711 | ROS (composite Z-score) (reactive oxygen species; Conc 20 μM): 0.665 | GE-HTS (composite Z-score) (OXPHOS gene expression; Conc 20 μM): 0.165 | nucOX (composite Z-score) (nuOXPHOS transcripts; Conc 20 μM): 0.081 | mitoOX (composite Z-score) (mtOXPHOS transcripts; Conc 20 μM): 0.349 | cyt c (composite Z-score) (cytochrome c; Conc 20 μM): 0.842 | Viability (composite Z-score) (C2C12 myotubes; Conc 20 μM): −0.394 | MTT (composite Z-score) ([2]; Conc 20 μM): −1.268

muurolladie-3-one
ΔΨm [1, 4]: 0.063 | ROS (reactive oxygen species; [4]): −0.490 | GE-HTS (OXPHOS gene expression; [4]): −0.747 | nucOX (nuOXPHOS transcripts; [4]): −0.745 | mitoOX (mtOXPHOS transcripts; [4]): −0.569 | cyt c (cytochrome c; [4]): −0.234 | Viability (C2C12 myotubes; [4]): −0.720 | MTT [2, 4]: −1.161

NCCS [mercaptamine]
ΔΨm [1]: −0.724 | ROS (reactive oxygen species): −0.661 | GE-HTS (OXPHOS gene expression): −1.175 | nucOX (nuOXPHOS transcripts): −0.980 | mitoOX (mtOXPHOS transcripts): −1.294 | cyt c (cytochrome c): 0.320 | Viability (C2C12 myotubes): −0.271 | MTT [2]: −0.085

methylorsellinic acid, ethyl ester
ΔΨm [1, 4]: −0.478 | ROS (reactive oxygen species; [4]): −0.293 | GE-HTS (OXPHOS gene expression; [4]): −0.990 | nucOX (nuOXPHOS transcripts; [4]): −1.040 | mitoOX (mtOXPHOS transcripts; [4]): −0.770 | cyt c (cytochrome c; [4]): 0.754 | Viability (C2C12 myotubes; [4]): 0.459 | MTT [2, 4]: −0.661

C=C[C@H]1CN2CC[C@H]1C[C@H]2[C@H](OC(=O)OCC)c1ccnc2ccc(OC)cc12 [quinine ethyl carbonate]
ΔΨm [1, 5]: −0.661 | ROS (reactive oxygen species; [5]): 0.401 | GE-HTS (OXPHOS gene expression; [5]): −1.190 | nucOX (nuOXPHOS transcripts; [5]): −1.003 | mitoOX (mtOXPHOS transcripts; [5]): −1.297 | cyt c (cytochrome c; [5]): 0.822 | Viability (C2C12 myotubes; [5]): −0.167 | MTT [2, 5]: −0.071

O=C(CCBr)N1CCN(C(=O)CCBr)CC1 [pipobroman]
ΔΨm [1]: −0.580 | ROS (reactive oxygen species): 0.342 | GE-HTS (OXPHOS gene expression): −1.074 | nucOX (nuOXPHOS transcripts): −0.918 | mitoOX (mtOXPHOS transcripts): −1.219 | cyt c (cytochrome c): 0.441 | Viability (C2C12 myotubes): −0.792 | MTT [2]: −1.907

C[N+](C)(C)CCCCCC[N+](C)(C)C [hexamethonium bromide]
ΔΨm [1, 6]: −0.602 | ROS (reactive oxygen species; [6]): 0.176 | GE-HTS (OXPHOS gene expression; [6]): −0.735 | nucOX (nuOXPHOS transcripts; [6]): −0.806 | mitoOX (mtOXPHOS transcripts; [6]): −0.442 | cyt c (cytochrome c): −0.284 | cyt c (cytochrome c; [6]): 0.087 | Viability (C2C12 myotubes; [6]): −0.378 | MTT [2, 6]: −1.179

caryophyllene
ΔΨm (composite Z-score) ([1]; Conc 20 μM): 1.045 | ROS (composite Z-score) (reactive oxygen species; Conc 20 μM): 0.996 | GE-HTS (composite Z-score) (OXPHOS gene expression; Conc 20 μM): 0.119 | nucOX (composite Z-score) (nuOXPHOS transcripts; Conc 20 μM): 0.216 | mitoOX (composite Z-score) (mtOXPHOS transcripts; Conc 20 μM): −0.100 | cyt c (composite Z-score) (cytochrome c; Conc 20 μM): −0.121 | Viability (composite Z-score) (C2C12 myotubes; Conc 20 μM): −0.255 | MTT (composite Z-score) ([2]; Conc 20 μM): −0.525

Cc1cc(=O)c2c(O)c3c(cc2o1)OCC(C)CC3 (stereo not shown) [dihydroptaeroxylin]
ΔΨm [1, 4]: −0.192 | ROS (reactive oxygen species; [4]): 0.151 | GE-HTS (OXPHOS gene expression; [4]): −0.581 | nucOX (nuOXPHOS transcripts; [4]): −0.410 | mitoOX (mtOXPHOS transcripts; [4]): −0.787 | cyt c (cytochrome c; [4]): 0.403 | Viability (C2C12 myotubes; [4]): 0.605 | MTT [2, 4]: −0.526

CCC(C)C(=O)OC1[C@@H]2CC3=C4CC(=O)O[C@@H](c5ccoc5)[C@]4(C)CCC3[C@@](C)(C2=O)[C@@H](CC(=O)OC)C1(C)C (stereo partly shown) [khayasin]
ΔΨm [1, 7]: 0.007 | ROS (reactive oxygen species; [7]): 0.528 | GE-HTS (OXPHOS gene expression; [7]): 0.671 | nucOX (nuOXPHOS transcripts; [7]): 0.798 | mitoOX (mtOXPHOS transcripts; [7]): 0.326 | cyt c (cytochrome c; [7]): −0.281 | Viability (C2C12 myotubes; [7]): −0.077 | MTT [2, 7]: −0.812

NC(=O)c1cc([N+](=O)[O-])cc([N+](=O)[O-])c1 [nitromide]
ΔΨm [1, 5]: 1.648 | ROS (reactive oxygen species; [5]): 1.299 | GE-HTS (OXPHOS gene expression; [5]): −0.128 | nucOX (nuOXPHOS transcripts; [5]): −0.100 | mitoOX (mtOXPHOS transcripts; [5]): −0.086 | cyt c (cytochrome c; [5]): −0.346 | Viability (C2C12 myotubes; [5]): −0.259 | MTT [2, 5]: −1.071

CC(=O)O[C@H]1CC[C@@]2(C)C(=CC[C@H]3[C@@H]4CC[C@H]([C@H](C)CCCC(C)C)[C@@]4(C)CC[C@@H]32)C1 [cholesteryl acetate]
ΔΨm [1, 3]: −0.657 | ROS (reactive oxygen species; [3]): 0.524 | GE-HTS (OXPHOS gene expression; [3]): 0.228 | nucOX (nuOXPHOS transcripts; [3]): 0.273 | mitoOX (mtOXPHOS transcripts; [3]): 0.142 | cyt c (cytochrome c; [3]): 0.097 | Viability (C2C12 myotubes; [3]): −1.471 | MTT [2, 3]: −2.138

OC[C@H]1O[C@@](CO)(O[C@H]2O[C@H](CO)[C@@H](O)[C@H](O)[C@H]2O)[C@@H](O[C@H]2O[C@H](CO)[C@@H](O)[C@H](O)[C@H]2O)[C@@H]1O [melezitose]
ΔΨm [1, 4]: −0.605 | ROS (reactive oxygen species; [4]): −0.125 | GE-HTS (OXPHOS gene expression; [4]): −0.502 | nucOX (nuOXPHOS transcripts; [4]): 0.054 | mitoOX (mtOXPHOS transcripts; [4]): −1.553 | cyt c (cytochrome c; [4]): 0.284 | Viability (C2C12 myotubes; [4]): −0.843 | MTT [2, 4]: −0.968

[H]/N=C(\N/C(=N/[H])NCCCCCCNC(=N)NC(=N)Nc1ccc(Cl)cc1)Nc1ccc(Cl)cc1 [chlorhexidine]
ΔΨm [1, 8]: 0.348 | ΔΨm [1, 5]: 0.412 | ROS (reactive oxygen species; [8]): −2.490 | ROS (reactive oxygen species; [5]): 1.660 | GE-HTS (OXPHOS gene expression; [8]): 0.775 | GE-HTS (OXPHOS gene expression; [5]): −0.455 | nucOX (nuOXPHOS transcripts; [8]): 0.990 | nucOX (nuOXPHOS transcripts; [5]): −0.592 | mitoOX (mtOXPHOS transcripts; [8]): 0.140 | mitoOX (mtOXPHOS transcripts; [5]): −0.141 | cyt c (cytochrome c; [8]): 0.090 | cyt c (cytochrome c; [5]): −1.683 | Viability (C2C12 myotubes; [8]): −1.859 | Viability (C2C12 myotubes; [5]): −0.976 | MTT [2, 8]: −4.138 | MTT [2, 5]: −2.340

Fc1ccc(C(c2ccccc2)(c2ccccc2F)n2ccnc2)cc1 (stereo not shown) [flutrimazole]
ΔΨm [1, 5]: −0.429 | ROS (reactive oxygen species; [5]): 0.781 | GE-HTS (OXPHOS gene expression; [5]): −0.763 | nucOX (nuOXPHOS transcripts; [5]): −0.592 | mitoOX (mtOXPHOS transcripts; [5]): −0.915 | cyt c (cytochrome c; [5]): 0.904 | Viability (C2C12 myotubes; [5]): 0.858 | MTT [2, 5]: −0.356
